Patent publication US7605175B2, “Inhibitors of cyclin-dependent kinases, compositions and uses related thereto” (GPC Biotech AG, priority 2001, dated 2009)

What was measured:
[1] = tested on: HCT-116 cells; experiment: BrdU incorporation assay; assay type: cell-based; settings: Homo sapiens, read-out: Brd U, concentration that inhibits BrdU incorporation by 50%
Procedure: This method measured the percentage of cells that incorporated the nucleotide analog, BrdU, into newly synthesized DNA as cells progressed through the S phase of the cell cycle. The inhibition of BrdU incorporation was used as a measure of a Cdk inhibitor's effect on S phase progression and DNA replication.
3 sets of HCT-116 cells (100,000 cells/set) were plated in T25 flasks and incubated with a test compound as above. Analysis was done at 24, 48, and 72 hours. BrdU was added to each T-25 flask from a stock of 10 mg/ml to a final concentration of 10 μM and the cells were incubated for an additional 16-18 hours at 37° C. The cells were then prepared for flow cytometric analysis according to manufacturer's protocol (BrdU Flow kit, BD-Pharmingen catalogue #2354KK) as follows:
Cells were harvested (adherent and floating) from the T25 flasks directly into Falcon 12×75 flow cytometric tubes as above followed by fixation and permeabilization with the addition of 100 μl of Cytofix/Cytoperm buffer (30 minutes, room temperature). The cells were then washed with 1 ml of Perm Wash buffer and the cell pellets were resuspended in 100 μl Cytoperm Plus buffer and incubated on ice for 10 minutes. The cells were then washed again with 1 ml of Perm Wash buffer and the fixation was repeated in 100 μl of Cytofix/Cyto Perm buffer for 10 minutes at room temperature. The cells were then washed with 1 ml of Perm Wash buffer. The cells were next treated for one hour at 37° C. with 100 μl DNase to expose incorporated BrdU followed by another wash step with 1 ml of Perm Wash buffer. […] Cells were protected from light and incubated at room temperature for 20-30 minutes. Following the incubation, the cells were washed with 1 ml of Perm Wash buffer, resuspended in 300 μl of 2% FBS in PBS, and analyzed on the flow cytometer. Results are presented in Table 2 as the concentration of compound (μM) that inhibits of BrdU incorporation by 50%.

[2] = tested on: arrested HCT-116 cells; experiment: Arrested cell assay, arrested HCT-116 tumor cells; assay type: cell-based; settings: Homo sapiens, serum-starved arrested cells, 72 hours, read-out: Arrested cell assay HCT IC50
Procedure: (§1) Cyclin-dependent kinase (Cdk) activity is required to promote the progression of cells through distinct phases of the cell division cycle. The proliferation of normal, non-transformed, cells in culture requires the presence of growth factors, the removal of which, through serum deprivation, leads to a loss of Cdk activity and consequent exit from the cell cycle as cells enter the quiescent phase, G0.
HCT-116 cells were plated in triplicate for each compound concentration to be tested in RPMI 1640 media containing 10% fetal calf serum at a density of either 200 or 2,000 cells per well in 24 well dishes, and incubated overnight at 37° C., 5% CO2. The media from the plate containing 2,000 cells per well was removed, cells were washed once with serum free media and 1 ml of serum free media was placed on cells. The plates containing cells both in the presence and absence of serum were incubated for 6 additional days.
(§2) The cells are incubated in the presence of the compounds for 72 hours (3 days) at 37° C. […] Cycling and arrested HCT-116 cells as well as cycling IMR90 cells were exposed to a panel of 6 doses ranging from 5 to 250 nM. For arrested normal cells, the range of doses was increased to 50 nM to 25 μM, to compensate for the expected decrease in activity.
(§3) The effect of 72 hours of compound exposure on cellular viability was assessed in the Calcein AM assay. Calcein AM is a fluorescent substrate of intracellular esterases that are only active in viable cells. Cleavage of the substrate thus provides a measure of viability, which is proportional to cell number.
(§4) A Calcein AM stock solution was prepared by dissolving a 50 μg aliquot (Molecular Probes catalogue # C3100) in 50 μl DMSO. The tube was incubated at room temperature for approximately 10 minutes to ensure that the Calcein had dissolved completely. The calcein was diluted into 10 ml PBS to prepare the final solution, which was protected from light.
(§5) The media was aspirated off the cells, which were then washed twice with 1 ml PBS to remove the PBS completely from cells by aspiration. 0.5 ml of the Calcein/PBS solution was transferred by pipette into each well. The plates were incubated at 37° C. for 75 minutes (protected from light) and read on a fluorescent plate reader (excitation 485/20 and emission 530/25).

[3] = tested on: arrested IMR90 cells; experiment: Arrested cell assay, arrested IMR90 normal cells; assay type: cell-based; settings: Homo sapiens, IMR-90; serum-starved arrested cells, 72 hours; read-out: Arrested cell assay IMR90 IC50
Procedure: as §1
IMR90 cells were plated in triplicate for each compound concentration to be tested in MEM-A media containing 10% fetal calf serum at a density of either 2,000 or 20,000 cells per well in 24-well dishes and incubated overnight at 37° C., 5% CO2. The media was removed from the 20,000 cell-per-well dish, cells were washed once with serum-free media, and serum-free media was placed on cells. The plates containing cells both in the presence and absence of serum were incubated for 3 additional days.
as §2, §3, §4, §5

[4] = tested on: HCT-116 cells; experiment: Calcein AM viability assay, HCT-116; assay type: cell-based; settings: Homo sapiens
Procedure: The potency of Cdk inhibitors, as measured by loss of cellular viability, was determined with the Calcein AM assay (Molecular Probes). Calcein AM is a substrate of intracellular esterases, which is cleaved only in viable cells to generate a fluorescent product that can be quantified with a fluorescent plate reader. The fluorescent signal is proportional to the number of viable cells, and thus loss of signal in response to the exposure of cells to Cdk inhibitors correlates with a loss of viability. This assay can distinguish cell cycle arrest, in which cells may still by viable, from loss of viability and is thus well suited for the evaluation of Cdk inhibitors. A compound that is a potent cytotoxic, may cause significant loss of cell viability in such assay.
Cellular IC50's were determined in the human colorectal carcinoma cell line, HCT-116, and the normal human fibroblast, IMR90. Protein adjusted IC50's were also determined in HCT-116.
HCT-116 or IMR90 cells were recovered from sub-confluent plates by trypsinization and 1,000 or 4,000 cells, respectively, were plated in 24-well dishes and incubated overnight at 37° C., 5% CO2. HCT-116 cells were cultured in RPMI-1640, 10% FCS, and IMR90 cells were cultured in Minimum Essential Medium-alpha, 10% FCS. After overnight incubation to allow adherence, the media was aspirated from each well and replaced with media containing a test compound at a concentration from 0 to 250 nM, spanning a total of 7 doses. The plates were returned to the incubator and cultured for an additional 72 hours (3 days). […] After 72-hours incubation with the test compound, the cells were washed twice with 1×PBS, taking special care to remove all residual buffer.
A 5 μM Calcein AM solution was prepared by dissolving a […] aliquot of Calcein (Molecular Probes catalog # C3100) in 50 μl DMSO. After the Calcein had completely dissolved (10 minutes at room temperature), it was diluted into 10 ml PBS. Calcein/PBS (0.5 ml) was added to each well. The plates were incubated for 75 minutes at 37° C. (protected from light) and the fluorescent signal was read on a fluorescent plate reader (excitation 485/20 and emission 530/25).

[5] = biological target: T1, Cdk2/cyclin E (Homo sapiens, UniProt P24941); experiment: Biochemical kinase assay Cdk2/cyclin E; settings: Table 6
T1 construct: made in house; host or cells: Sf9 insect cells
Procedure, shortened: (§6)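 Sf9-expressed Cdk/cyclin heterodimers phosphorylate GST-Rb (residues 379–928, 40 μg) with 50 μM ATP plus [γ-33P]ATP, pH 7.5, 10% DMSO, 15 min at 30 °C. Compounds 1 nM–10 μM. 33P captured on glutathione-sepharose and scintillation-counted; activity relative to DMSO control after EDTA-background subtraction.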

[6] = tested on: HIV-1 ROJO; experiment: Antiviral activity in PBMCs infected with HIV-1 ROJO (reverse transcriptase); assay type: cell-based; settings: for IC50: Human immunodeficiency virus 1, PBMC, 168 h, read-out: IC50: 50% inhibition of virus replication measured by reverse transcriptase levels in the supernatant, HIV-1 ROJO, 7 days post infection
Procedure: (§7) The activity of the certain compounds of the invention was evaluated in peripheral blood mononuclear cells (PBMCs) infected with the low passage, clinical isolate HIV-1 ROJO to generate a measure of the efficacy of these compounds in acutely infected cells. The use of these normal human cells allows an estimate of the therapeutic index of these compounds to be made. Fresh PBMCs from two donors were pooled and stimulated with PHA-P for 48-72 hours. The cells were then cultured in the presence of IL-2 to maintain the cell division initiated by the mitogenic signal. The virus was added at a multiplicity of infection of 0.1. The cells were cultured for 7 days post infection prior to the evaluation of efficacy. Viral replication was measured by the level of reverse transcriptase activity in the supernatant and cytotoxicity was measured with the MTS assay.

[7] = Cytotoxicity in PBMCs (MTS assay); assay type: cell-based, human; settings: human
Procedure: as §7

[8] = biological target: T2, Cdk4/cyclin D1 (Homo sapiens, UniProt P11802); experiment: Biochemical kinase assay Cdk4/cyclin D1; settings: Table 6
T2 construct: made in house; host or cells: Sf9 insect cells
Procedure, shortened: as §6

[9] = biological target: T3, Cdc2/cyclin B (Homo sapiens, UniProt P06493); experiment: Biochemical kinase assay Cdc2/cyclin B; settings: Table 6
T3 construct: purchased
Procedure, shortened: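 Radiometric TCA-precipitation assay measuring [γ-32P]ATP incorporation into Histone H1 (20 μg); 50 μM ATP, 10% DMSO, Tris pH 7.5 with MgCl2 and DTT. Compounds at 1 nM to 10 μM; reaction 20 min at 30 °C, stopped with EDTA/ATP. Activity relative to DMSO control after subtracting 50 mM EDTA background.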

[10] = HCT-116, plus 1 mg/ml alpha acidic glycoprotein and 45 mg/ml human serum albumin, read-out: HCT-116 IC50 Protein adjusted
[11] = HCT-116, 72 h, Calcein AM, 72 hours, read-out: HCT-116 IC50 Viability
[12] = HCT-116, non-protein adjusted, Table 6, read-out: HCT-116 viability IC50

T3 sequence (P06493 whole entry, species assumed): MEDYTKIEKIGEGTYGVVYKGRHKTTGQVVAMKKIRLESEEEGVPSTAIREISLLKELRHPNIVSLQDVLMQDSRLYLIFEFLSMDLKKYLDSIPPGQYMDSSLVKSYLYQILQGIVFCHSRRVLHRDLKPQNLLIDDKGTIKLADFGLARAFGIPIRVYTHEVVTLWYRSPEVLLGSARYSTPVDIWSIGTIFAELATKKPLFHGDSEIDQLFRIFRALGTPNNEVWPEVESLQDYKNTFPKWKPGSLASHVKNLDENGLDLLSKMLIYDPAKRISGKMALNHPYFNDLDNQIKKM
T3 sequence (P14635 whole entry partner, species assumed): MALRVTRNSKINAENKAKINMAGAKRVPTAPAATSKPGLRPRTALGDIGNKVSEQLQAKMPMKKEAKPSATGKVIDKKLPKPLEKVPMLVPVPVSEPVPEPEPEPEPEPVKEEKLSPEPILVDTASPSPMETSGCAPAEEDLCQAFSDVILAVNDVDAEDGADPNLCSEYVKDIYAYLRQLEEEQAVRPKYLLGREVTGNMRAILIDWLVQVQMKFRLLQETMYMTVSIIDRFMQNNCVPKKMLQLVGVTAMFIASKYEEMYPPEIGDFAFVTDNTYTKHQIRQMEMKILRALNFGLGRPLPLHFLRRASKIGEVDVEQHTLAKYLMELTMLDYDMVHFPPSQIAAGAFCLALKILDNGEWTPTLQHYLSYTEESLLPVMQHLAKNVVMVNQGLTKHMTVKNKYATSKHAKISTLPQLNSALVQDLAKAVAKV
T2 sequence (P11802 whole entry, species assumed): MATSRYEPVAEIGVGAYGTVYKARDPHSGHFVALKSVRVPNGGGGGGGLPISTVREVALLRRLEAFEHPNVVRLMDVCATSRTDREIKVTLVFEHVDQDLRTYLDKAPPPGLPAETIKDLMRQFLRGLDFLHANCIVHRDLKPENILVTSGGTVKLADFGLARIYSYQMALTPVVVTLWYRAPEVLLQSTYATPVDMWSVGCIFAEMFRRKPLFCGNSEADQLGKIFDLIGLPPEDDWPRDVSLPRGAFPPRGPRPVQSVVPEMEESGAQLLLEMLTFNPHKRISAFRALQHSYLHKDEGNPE
T2 sequence (P24385 whole entry partner, species assumed): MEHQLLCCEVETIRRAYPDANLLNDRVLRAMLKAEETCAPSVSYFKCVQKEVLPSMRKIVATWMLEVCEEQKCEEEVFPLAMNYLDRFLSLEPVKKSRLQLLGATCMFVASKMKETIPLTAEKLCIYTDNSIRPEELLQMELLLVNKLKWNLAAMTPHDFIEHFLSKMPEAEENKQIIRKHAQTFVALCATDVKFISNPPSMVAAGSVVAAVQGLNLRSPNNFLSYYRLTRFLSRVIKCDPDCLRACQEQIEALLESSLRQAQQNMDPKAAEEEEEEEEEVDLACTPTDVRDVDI

IC50 ([1]; HCT-116, 48 h) [nM] | IC50 [2] [nM] | IC50 ([1]; HCT-116, 24 h) [nM] | IC50 [4, 11] [nM] | Structure (SMILES) | IC50 [3] [nM] | IC50 [4, 12] [nM] | IC50 [5] [nM] | TI: TC50/IC50 [6] | IC50 [6] [nM] | CC50 at 7 days [7] [nM] | further results
< 100 | < 100 | – | – | CN1CCN(NC(=O)Nc2cccc3c2C(=O)c2c-3n[nH]c2-c2ccc(OCCN3CCOCC3)cc2)CC1 [Q] | > 100 | – | – | – | – | – | –
– | < 100 | < 100 | – | CN1CCN(NC(=O)Nc2cccc3c2C(=O)c2c-3n[nH]c2-c2ccc(OCCN3CC[C@H](O)C3)cc2)CC1 [O] | > 100 | – | – | – | – | – | IC50 [4, 10]: < 1000 nM
< 100 | < 100 | – | < 100 | CN1CCN(NC(=O)Nc2cccc3c2C(=O)c2c-3n[nH]c2-c2ccc(OCCN3CCC[C@H]3CO)cc2)CC1 [Compound M] | > 1000 | – | – | – | – | – | –
– | – | – | – | CC(C)c1nn(-c2c(Cl)cccc2Cl)c2nc(Cc3ccc(CN4CCCC4)c(O)c3)[nH]c(=O)c12.Cl [Compound C3] | – | < 100 | < 100 | >10 | < 10 | < 100 | –
– | < 100 | < 10 | < 100 | CCCN(CCOc1ccc(-c2[nH]nc3c2C(=O)c2c(NC(=O)NN4CCOCC4)cccc2-3)cc1)CC1CC1 [G] | > 100 | – | – | – | – | – | –
– | – | – | – | CC(C)c1nn(-c2c(Cl)cc(Cl)cc2Cl)c2nc(Cc3ccc(OCCO)cc3)[nH]c(=O)c12 [Compound A61] | – | – | < 100 | >10 | < 10 | < 100 | IC50 [8]: < 1000 nM; IC50 [9]: < 100 nM
– | – | – | – | CC(C)c1nn(-c2c(Cl)cc(Cl)cc2Cl)c2nc(Cc3ccc(OCC(C)(C)O)cc3)[nH]c(=O)c12 [Compound A64] | – | < 100 | < 100 | >10 | < 10 | < 100 | IC50 [8]: < 1000 nM; IC50 [9]: < 100 nM
< 100 | < 10 | < 100 | < 100 | CC(C)N1CCN(Cc2cc(-c3[nH]nc4c3C(=O)c3c(NC(=O)NN5CCOCC5)cccc3-4)ccc2O)CC1 [K] | > 1000 | – | – | – | – | – | –
< 100 | < 10 | – | – | CC(C)c1nn(-c2c(Cl)cc(Cl)cc2Cl)c2nc(Cc3ccc(NS(=O)(=O)CCCN4CCOCC4)cc3)[nH]c(=O)c12 [D] | > 1000 | – | – | – | – | – | IC50 ([1]; HCT-116, 72 h): < 100 nM
< 1000 | < 100 | – | – | O=C(Nc1cccc2c1C(=O)c1c-2n[nH]c1-c1ccc(OCCN(CCO)CCO)cc1)NN1CCOCC1 [H] | > 1000 | – | – | – | – | – | IC50 [4, 10]: < 1000 nM
– | – | – | – | CC(C)c1nn(-c2c(Cl)cccc2Cl)c2nc(Cc3ccc(OCCN4CCOCC4)c(O)c3)[nH]c(=O)c12 [Compound A32] | – | < 100 | < 100 | >10 | < 10 | < 100 | IC50 [8]: < 100 nM; IC50 [9]: < 1000 nM
– | < 100 | < 10 | < 100 | O=C(Nc1cccc2c1C(=O)c1c-2n[nH]c1-c1ccc(OCCN2CCCC2)cc1)NN1CCOCC1 [Compound I] | > 1000 | – | – | – | – | – | –
– | – | – | – | CC(C)c1nn(-c2c(Cl)cc(Cl)cc2Cl)c2nc(Cc3ccc(CNC(CO)CO)n3C)[nH]c(=O)c12.Cl [Compound C4] | – | < 100 | < 10 | >1 | < 100 | < 100 | –
